Patent US20220304957A1, “ANTI-CANCER COMPOSITIONS AND METHODS OF USE” (Board of Supervisors of Louisiana State University and …, priority 2019, published 2022)
“Also recorded” adds a separate entry of the source. Read-outs that look alike come from different tables or passages of the source.

What was measured:
[1] = in vivo; cited from earlier work
[2] = Stability in human blood (HPLC); format: in vitro ADME; conditions: 50 μM added, 48-hour incubation
Method: Aliquots of 50 μM PP1 and FF in DMSO were added to 500 μl to heparinized human blood to a final concentration of 50 μM. Following incubation at 37° C. for the indicated time points, the samples were frozen at −80° C., and later prepared for HPLC-based detection of the compounds. Please note that FF is converted to FA in the presence of human blood. […] Data represent average values with standard deviation (n=3). panel B: Water solubility. FF and PP1, were added to water to a final concentration of 50 mM and sonicated in an ultrasonic bath (Branson 1510 Digital Heated Ultrasonic bath) for one hour at room temperature. The samples were then centrifuged for 10 minutes at 16000×g, and the supernatant filtered through 0.45 μm syringe filter. […] The PPAR transcriptional activity was determined in HepG2 cells by the JsTkpGL3 reporter plasmid, which contains a firefly luciferase gene driven by the PPRE, which consists of three copies of the J site from the apo-AII gene promoter. […] The luciferase activity was detected with Dual-Luciferase reporter assay system (Promega, Madison, Wis.), and the resulting luminescence measured with Synergy 2 microplate reader (BioTek, Winooski, Vt.). […]
In this experiment, 50 μM of PP1 and 50 μM of FF were incubated with human blood at […], at indicated time points. […] In contrast, nearly 25 μM of PP1 was still detected at the 48-hour time point (FIG. 4A; left panel).

[3] = test system: LN-229 human glioblastoma cells; conditions: for % cell death: 50 μM (single dose); for cell death: 25 and 50 μM, 72- and 96-hour time points
[4] = test system: LN229 human glioblastoma cell line; experiment: Cell viability (MTT assay), LN229; format: cell-based
[5] = test system: PPAR responsive elements (PPRE); experiment: PPAR luciferase assay (PPRE reporter) in HepG2 cells; format: cell-based; conditions: 25 μM, 24 hrs
Method: Aliquots of 50 μM PP1 and FF in DMSO were added to 500 μl to heparinized human blood to a final concentration of 50 μM. Following incubation at 37° C. for the indicated time points, the samples were frozen at −80° C., and later prepared for HPLC-based detection of the compounds. Please note that FF is converted to FA in the presence of human blood. […] Data represent average values with standard deviation (n=3). panel B: Water solubility. FF and PP1, were added to water to a final concentration of 50 mM and sonicated in an ultrasonic bath (Branson 1510 Digital Heated Ultrasonic bath) for one hour at room temperature. The samples were then centrifuged for 10 minutes at 16000×g, and the supernatant filtered through 0.45 μm syringe filter. Water solubilized PP1 and FF were subsequently processed for HPLC analysis (see Methods). Data represent average values with standard deviation (n=3). panel C: Effects of PP compounds on PPAR responsive elements (PPRE). The PPAR transcriptional activity was determined in HepG2 cells by the JsTkpGL3 reporter plasmid, which contains a firefly luciferase gene driven by the PPRE, which consists of three copies of the J site from the apo-AII gene promoter. To normalize for efficiency of transfection the cells were additionally transfected with the pSV40-GLuc (New England Biolabs, Ipswich, Mass.) control plasmid. […] The luciferase activity was detected with Dual-Luciferase reporter assay system (Promega, Madison, Wis.), and the resulting luminescence measured with Synergy 2 microplate reader (BioTek, Winooski, Vt.). Data represent average values with standard deviation (n=6).
PPAR Luciferase Assay—The PPAR transcriptional activity was determined by utilizing the JsTkpGL3 reporter plasmid, which contains a firefly luciferase gene driven by the PPAR responsive element (PPRE), which consists of three copies of the J site from the apo-AII gene promoter. Together with JsTkpGL3 plasmid HepG2 cells were transfected with pSV40-GLuc (New England Biolabs, Ipswich, Mass.) control plasmid expressing Gaussia luciferase under the control of the constitutive SV40 early promoter to normalize for efficiency of transfection. […] The luciferase activity was detected with Dual-Luciferase reporter assay system (Promega, Madison, Wis.), and the resulting luminescence measured with Synergy 2 microplate reader (BioTek, Winooski, Vt.).

[6] = Stability of stock solution in DMSO; format: physicochemical
LN-229 cells = experiment: Cell morphology, peroxisome accumulation in LN-229; format: cell-based, human; conditions: DMEM 1 g/L glucose, 10% FBS
Description: Red arrows indicated accumulation of peroxisomes (black dot-like structures) around the nucleus in PP3-treated cells but not in control (DMSO). (LN229 cells, DMEM 1 g/L glucose 10% FBS P/S).

In the case of `CC(C)(Oc1ccc(C(=O)c2ccc(Cl)cc2)cc1)C(=O)O` [FA, fenofibric acid], the “crossing of the blood brain tumor barrier (BBTB)” value [1] is given as “do not cross”.
For `CC(C)OC(=O)C(C)(C)Oc1ccc(C(=O)c2ccc(Cl)cc2)cc1` [FF, fenofibrate, reference compound], the “conversion to FA in human blood” value [2] was “almost all FF was converted to FA”, the “% cell death” value ([3]; 48 hours) was 24+/−4% and the “% cell death” value ([3]; 72 hours) was 90+/−1%. The “% cell death” value ([3]; 96 hrs) was 99+/−1.2%.
For `CC(C)(C)OC(=O)NCCCCNC(=O)C(C)(C)Oc1ccc(C(=O)c2ccc(Cl)cc2)cc1` [H28], the “CV = Cell viability (% of control)” value ([4]; 1 μM, MTT) was 92.75±3.59 % of control, the “CV = Cell viability (% of control)” value ([4]; 5 μM, MTT) was 65.90±2.82 % of control and the “CV = Cell viability (% of control)” value ([4]; 10 μM, MTT) was 38.31±3.50 % of control.
For `CN1CCN(C(=O)C(C)(C)Oc2ccc(C(=O)c3ccc(Cl)cc3)cc2)CC1.Cl` [H35], the “CV = Cell viability (% of control)” value ([4]; 1 μM, MTT) was 93.64±2.08 % of control, the “CV = Cell viability (% of control)” value ([4]; 5 μM, MTT) was 79.34±1.70 % of control and the “CV = Cell viability (% of control)” value ([4]; 10 μM, MTT) was 56.26±0.59 % of control.
With `CC(C)(Oc1ccc(C(=O)c2ccc(Cl)cc2)cc1)C(=O)N1CCC(N2CCOCC2)CC1` [H37, 2-[4-(4-chlorobenzoyl)phenoxy]-2-methyl-1-[4-(morpholin-4-yl)piperidin-1-yl]propan-1-one] the “CV = Cell viability (% of control)” value ([4]; 1 μM, MTT) was 109.20±5.73 % of control, the “CV = Cell viability (% of control)” value ([4]; 5 μM, MTT) was 75.02±1.42 % of control and the “CV = Cell viability (% of control)” value ([4]; 10 μM, MTT) was 47.02±1.23 % of control.
In the case of `CC(C)(Oc1ccc(C(=O)c2ccc(Cl)cc2)cc1)C(=O)N1CCC([NH+]2CCOCC2)CC1.[Cl-]` [H38, 4-(1-{2-[4-(4-chlorobenzoyl)phenoxy]-2-methylpropanoyl}piperidin-4-yl)morpholin-4-iumchloride], the “CV = Cell viability (% of control)” value ([4]; 1 μM, MTT) is reported as 97.97±11.41 % of control, the “CV = Cell viability (% of control)” value ([4]; 5 μM, MTT) is reported as 74.89±1.79 % of control and the “CV = Cell viability (% of control)” value ([4]; 10 μM, MTT) is reported as 52.00±1.86 % of control.
In the case of `CC(C)(Oc1ccc(C(=O)c2ccc(Cl)cc2)cc1)C(=O)N(CCO)CCO` [H46], the “CV = Cell viability (% of control)” value ([4]; 1 μM, MTT) is reported as 103.00±2.98 % of control, the “CV = Cell viability (% of control)” value ([4]; 5 μM, MTT) is reported as 86.15±8.50 % of control and the “CV = Cell viability (% of control)” value ([4]; 10 μM, MTT) is reported as 51.97±10.27 % of control.
In the case of `CC(C)OC(=O)C(C)(C)Oc1ccc(C(=O)c2ccccc2)cc1` [HR6], the “anti-glioblastoma activity / relative potency” value ([4]; 25 μM, 72 hrs, MTT) is reported as “virtually inactive”.
For `CC(C)OC(=O)C(C)(C)Oc1cccc(C(=O)c2ccccc2)c1` [HR7], the “anti-glioblastoma activity / relative potency” value ([4]; 25 μM, 72 hrs, MTT) was “virtually inactive”.
With `CC(C)OC(=O)C(C)(C)Oc1ccc(C(=O)c2ccc(F)cc2)cc1` [HR8] the “anti-glioblastoma activity / relative potency” value ([4]; 25 μM, 72 hrs, MTT) was “virtually the same activity (CV) as FF”.
For `CN(CCO)C(=O)C(C)(C)Oc1ccc(C(=O)c2ccc(F)cc2)cc1` [HR9], the “anti-glioblastoma activity / relative potency” value ([4]; 25 μM, 72 hrs, MTT) was “lower potency than PP1”.
With `CC(C)(Oc1ccc(C(=O)c2ccc(F)cc2)cc1)C(=O)N1CCCCC1` [HR11] the “anti-glioblastoma activity / relative potency” value ([4]; 25 μM, 72 hrs, MTT) was “slightly higher biological activity”.
In the case of `CC(Oc1ccc(C(=O)c2ccc(Cl)cc2)cc1)C(=O)N1CCC(O)CC1` (stereo not drawn) [HR21], the cell death ([4]; 25 μM, 72 hrs) is reported as “about 60%”.
For `CC(Oc1ccc(C(=O)c2ccc(Cl)cc2)cc1)C(=O)N1CCCCC1` (stereo not drawn) [HR22], the cell death ([4]; 25 μM, 72 hrs) was “about 60%”.
With `CC(C)(Oc1ccc(C(=O)c2ccc(Cl)cc2)cc1)C(=O)NCCCCN` [HR31] the “anti-glioblastoma activity / relative potency” value ([4]; 25 μM, 72 hrs, MTT) was “CV value similar to that of 25 μM FF”.
With `CN1CCN(C(=O)C(C)(C)Oc2ccc(C(=O)c3ccc(Cl)cc3)cc2)CC1.Cl` [HR35, 4-{2-[4-(4-chlorobenzoyl)phenoxy]-2-methylpropanoyl}6-8,13-20,24-26,28,34,38-1-methylpiperazin-1-ium chloride] the “anti-glioblastoma activity / relative potency” value ([4]; 25 μM, 72 hrs, MTT) was “more potent than its free base HR34”.
Work on `CC(C)(Oc1ccc(C(=O)c2ccc(Cl)cc2)cc1)C(=O)N1CC[N+](C)(C)CC1` [HR36, 4-{2-[4-(4-chlorobenzoyl)phenoxy]-2-methylpropanoyl}-1,1-dimethylpiperazin-1-ium iodide] yielded a viability at 25 µM ([4]; Homo sapiens, LN-229, 25 μM, 72 hrs, MTT, read-out: CV = Cell viability (% of control)) of 98%.
In the case of `CC(C)(Oc1ccc(C(=O)c2ccc(Cl)cc2)cc1)C(=O)N1CCC(N2CCOCC2)CC1` [HR37, 2-[4-(4-chlorobenzoyl)phenoxy]-2-methyl-1-[4-(morpholin-4-yl)piperidin-1-yl]propan-1-one], the “anti-glioblastoma activity / relative potency” value ([4]; 25 μM, 72 hrs, MTT) is reported as “more potent than its hydrochloric salt (HR38)”.
With `CC(C)(Oc1ccc(C(=O)c2ccc(Cl)cc2)cc1)C(=O)NCCO` [HR39] the “anti-glioblastoma activity / relative potency” value ([4]; 25 μM, 72 hrs, MTT) was “significantly less potent than PP1”.
For `CC(C)(Oc1ccc(C(=O)c2ccc(Cl)cc2)cc1)C(=O)N1CCC(O)CC1` [HR41], the “anti-glioblastoma activity / relative potency” value ([4]; 25 μM, 72 hrs, MTT) was “less potent than PP1”.
With `CC(C)(Oc1ccc(C(=O)c2ccc(Cl)cc2)cc1)C(=O)NCC(O)CO` (stereo not drawn) [HR42] the “anti-glioblastoma activity / relative potency” value ([4]; 25 μM, 72 hrs, MTT) was “almost identical”.
For `CC(C)(Oc1ccc(C(=O)c2ccc(Cl)cc2)cc1)C(=O)NC(CO)CO` [HR43], the “anti-glioblastoma activity / relative potency” value ([4]; 25 μM, 72 hrs, MTT) was “almost identical”.
For `CN(CC(O)CO)C(=O)C(C)(C)Oc1ccc(C(=O)c2ccc(Cl)cc2)cc1` (stereo not drawn) [HR44], the “anti-glioblastoma activity / relative potency” value ([4]; 25 μM, 72 hrs, MTT) was “more potent than the secondary amide HR39”.
With `CC(C)(Oc1ccc(C(=O)c2ccc(Cl)cc2)cc1)C(=O)NC(CO)(CO)CO` [HR45] the “anti-glioblastoma activity / relative potency” value ([4]; 25 μM, 72 hrs, MTT) was “slightly decreases the potency”.
In the case of `CC(C)(Oc1ccc(C(=O)c2ccc(Cl)cc2)cc1)C(=O)N(CCO)CCO` [HR46], the “anti-glioblastoma activity / relative potency” value ([4]; 25 μM, 72 hrs, MTT) is reported as “almost as potent as PP1”.
In the case of `CC(C)(Oc1ccc(C(=O)c2ccc(Cl)cc2)cc1)C(=O)Nc1ccccc1O` [HR49, 2-(4-(4-chlorobenzoyl)phenoxy)-N-(2-hydroxyphenyl)-2-methylpropanamide], the “anti-glioblastoma activity / relative potency” value ([4]; 25 μM, 72 hrs, MTT) is reported as “more potent than HR48” and the IC50 ([4]; Homo sapiens, LN-229, LN229, read-out: IC50 concentration) is reported as < 10 µM.
In the case of `CN1CCN(C(=O)C(C)(C)Oc2ccc(C(=O)c3ccc(Cl)cc3)cc2)CC1` [PP2, 2-[4-(4-chlorobenzoyl)phenoxy]-2-methyl-1-(4-methylpiperazin-1-yl)propan-1-one], the “effect on PPAR responsive elements (PPRE)” value (“effect … (PPRE)” below) [5] is reported as “attenuate” and the “cell death” value [3] is reported as “extensive cell death”.
In the case of `CN(CC(O)C(O)C(O)C(O)CO)C(=O)C(C)(C)Oc1ccc(C(=O)c2ccc(Cl)cc2)cc1` [PP3, 2-[4-(4-chlorobenzoyl)phenoxy]-N,2-dimethyl-N-[(2S,3R,4R,5R)-2,3,4,5,6-pentahydroxyhexyl]propenamide], the “effect … (PPRE)” value [5] is reported as “does not repress PPAR responsive elements; also recorded: does not share this PPAR-inhibitory activity”, the “stability dissolved in DMSO” value [6] is reported as “quite unstable” and the “accumulation of peroxisomes” value (LN-229 cells) is reported as “extensive accumulation of peroxisomes”. The “cytostatic effect” value ([3]; 10 μM) was “cytostatic activity”.
With `CC(C)(Oc1ccc(C(=O)c2ccc(Cl)cc2)cc1)C(=O)N1CCC(N2CCOCC2)CC1` [PP4, 2-[4-(4-chlorobenzoyl)phenoxy]-2-methyl-1-[4-(morpholin-4-yl)piperidin-1-yl]propan-1-one] the “effect … (PPRE)” value [5] was “attenuate” and the “cell death” value [3] was “extensive cell death”.
